Structures can show the parent of a compound that is named as a salt.
target: CK2A1 (CK2α/β) (Homo sapiens, UniProt P68400); assay: CK2 kinase assay, CK2A1 (CK2α/β); format: biochemical; conditions: Table A; read-out: CK2A1 (CK2α/β) (IC50)
Sequence (P68400 whole entry, species assumed): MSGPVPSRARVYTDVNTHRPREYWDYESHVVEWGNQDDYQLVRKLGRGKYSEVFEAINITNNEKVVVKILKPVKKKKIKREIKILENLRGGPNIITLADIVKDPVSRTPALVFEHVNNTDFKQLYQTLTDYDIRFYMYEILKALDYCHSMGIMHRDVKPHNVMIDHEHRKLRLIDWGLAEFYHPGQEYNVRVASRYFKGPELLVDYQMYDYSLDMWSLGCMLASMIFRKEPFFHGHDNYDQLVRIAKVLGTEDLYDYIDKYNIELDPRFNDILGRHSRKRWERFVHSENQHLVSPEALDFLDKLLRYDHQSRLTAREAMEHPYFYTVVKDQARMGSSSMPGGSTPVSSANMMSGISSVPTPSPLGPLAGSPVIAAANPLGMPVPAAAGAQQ
Sequence (P67870 whole entry partner, species assumed): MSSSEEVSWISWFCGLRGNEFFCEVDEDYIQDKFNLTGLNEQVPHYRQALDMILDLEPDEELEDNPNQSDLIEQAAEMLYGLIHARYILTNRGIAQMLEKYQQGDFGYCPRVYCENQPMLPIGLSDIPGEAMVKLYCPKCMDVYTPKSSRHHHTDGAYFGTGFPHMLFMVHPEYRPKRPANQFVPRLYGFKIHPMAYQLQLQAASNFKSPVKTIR

SMILES	IC50
CCNc1nc(Nc2cc(C#N)cc(N3CC[C@@H](NC(=O)OC)[C@H](OC(=O)[C@@H](N)[C@@H](C)O)C3)c2Cl)nn2c(C#N)cnc12 [Example 810, (2S,3R)-(3R,4R)-1-(2-chloro-5-cyano-3-((7-cyano-4-(ethylamino)imidazo[2,1-f][1,2,4]triazin-2-yl)amino)phenyl)-4-((methoxycarbonyl)amino)piperidin-3-yl 2-amino-3-hydroxybutanoate hydrochloride]	3.82 nM
CCNc1nc(Nc2cc(C#N)cc(N3CC[C@@H](NC(=O)OC)[C@H](OC(=O)[C@@H](N)CCCN)C3)c2Cl)nn2c(C#N)cnc12 [Example 811, (S)-(3R,4R)-1-(2-chloro-5-cyano-3-((7-cyano-4-(ethylamino)imidazo[2,1-f][1,2,4]triazin-2-yl)amino)phenyl)-4-((methoxycarbonyl)amino)piperidin-3-yl 2,5-diaminopentanoate dihydrochloride]	1.88 nM
CCNc1nc(Nc2cc(C#N)cc(N3CC[C@@H](NC(=O)OC)[C@H](OC(=O)[C@@H](N)CCN)C3)c2Cl)nn2c(C#N)cnc12 [Example 812, (S)-(3R,4R)-1-(2-chloro-5-cyano-3-((7-cyano-4-(ethylamino)imidazo[2,1-f][1,2,4]triazin-2-yl)amino)phenyl)-4-((methoxycarbonyl)amino)piperidin-3-yl 2,4-diaminobutanoate dihydrochloride]	4.61 nM
CCNc1nc(Nc2cc(C#N)cc(N3CC[C@@H](NC(=O)OC)[C@H](OC(=O)[C@@H]4CCCN4)C3)c2Cl)nn2c(C#N)cnc12 [Example 813, (S)-(3R,4R)-1-(2-chloro-5-cyano-3-((7-cyano-4-(ethylamino)imidazo[2,1-f][1,2,4]triazin-2-yl)amino)phenyl)-4-((methoxycarbonyl)amino)piperidin-3-yl pyrrolidine-2-carboxylate hydrochloride]	4.48 nM
CCNc1nc(Nc2cc(C#N)cc(N3CC[C@@H](NC(=O)OC)[C@H](OC(=O)CC[C@H](N)C(=O)OC)C3)c2Cl)nn2c(C#N)cnc12 [Example 814, (S)-5-((3R,4R)-1-(2-chloro-5-cyano-3-((7-cyano-4-(ethylamino)imidazo[2,1-f][1,2,4]triazin-2-yl)amino)phenyl)-4-((methoxycarbonyl)amino)piperidin-3-yl) 1-methyl 2-aminopentanedioate hydrochloride]	24.9 nM
CCNc1nc(Nc2cc(C#N)cc(N3CC[C@@H](NC(=O)OC)[C@H](OC(=O)C[C@H](N)C(=O)OC(C)(C)C)C3)c2Cl)nn2c(C#N)cnc12 [Example 815, (S)-1-tert-butyl 4-((3R,4R)-1-(2-chloro-5-cyano-3-((7-cyano-4-(ethylamino)imidazo[2,1-f][1,2,4]triazin-2-yl)amino)phenyl)-4-((methoxycarbonyl)amino)piperidin-3-yl) 2-aminosuccinate hydrochloride]	18.7 nM
CCNc1nc(Nc2cc(C#N)cc(N3CC[C@@H](NC(=O)OC)[C@H](OC(=O)CCCCN)C3)c2Cl)nn2c(C#N)cnc12 [Example 816, (3R,4R)-1-(2-chloro-5-cyano-3-((7-cyano-4-(ethylamino)imidazo[2,1-f][1,2,4]triazin-2-yl)amino)phenyl)-4-((methoxycarbonyl)amino)piperidin-3-yl 5-aminopentanoate hydrochloride]	5.2 nM
CCNc1nc(Nc2cc(C#N)cc(N3CC[C@@H](NC(=O)OC)[C@H](OC(=O)CCCN)C3)c2Cl)nn2c(C#N)cnc12 [Example 817, (3R,4R)-1-(2-chloro-5-cyano-3-((7-cyano-4-(ethylamino)imidazo[2,1-f][1,2,4]triazin-2-yl)amino)phenyl)-4-((methoxycarbonyl)amino)piperidin-3-yl 4-aminobutanonate hydrochloride]	5.05 nM
CCNc1nc(Nc2cc(C#N)cc(N3CC[C@@H](NC(=O)OC)[C@H](OC(=O)[C@H](N)CC(N)=O)C3)c2Cl)nn2c(C#N)cnc12 [Example 818, (R)-(3R,4R)-1-(2-chloro-5-cyano-3-((7-cyano-4-(ethylamino)imidazo[2,1-f][1,2,4]triazin-2-yl)amino)phenyl)-4-((methoxycarbonyl)amino)piperidin-3-yl 2,4-diamino-4-oxobutanoate hydrochloride]	2.49 nM
CCNc1nc(Nc2cc(C#N)cc(N3CC[C@@H](NC(=O)OC)[C@H](OC(=O)C[C@@H](N)CC(C)C)C3)c2Cl)nn2c(C#N)cnc12 [Example 819, (S)-(3R,4R)-1-(2-chloro-5-cyano-3-((7-cyano-4-(ethylamino)imidazo[2,1-f][1,2,4]triazin-2-yl)amino)phenyl)-4-((methoxycarbonyl)amino)piperidin-3-yl 3-amino-5-methylhexanoate hydrochloride]	5.81 nM
CCNc1nc(Nc2cc(C#N)cc(N3CC[C@@H](NC(=O)OC)[C@H](OC(=O)C[C@H]4CC[C@H](N)CC4)C3)c2Cl)nn2c(C#N)cnc12 [Example 820, (3R,4R)-1-(2-chloro-5-cyano-3-((7-cyano-4-(ethylamino)imidazo[2,1-f][1,2,4]triazin-2-yl)amino)phenyl)-4-((methoxycarbonyl)amino)piperidin-3-yl 2-((1r,4R)-4-aminocyclohexyl)acetate hydrochloride]	5.96 nM

Now from value to molecule:

IC50	SMILES
2.72 nM	CCNc1nc(Nc2cc(C#N)cc(N3CC[C@@H](NC(=O)OC)[C@H](OC(=O)CNC(=O)[C@H](C)N)C3)c2Cl)nn2c(C#N)cnc12 [Example 821, (3R,4R)-1-(2-chloro-5-cyano-3-((7-cyano-4-(ethylamino)imidazo[2,1-f][1,2,4]triazin-2-yl)amino)phenyl)-4-((methoxycarbonyl)amino)piperidin-3-yl 2-((S)-2-aminopropanamido)acetate hydrochloride]
1.74 nM	CCNc1nc(Nc2cc(C#N)cc(N3CC[C@@H](NC(=O)OC)[C@H](OC(=O)[C@@H](NC(=O)[C@@H](N)CCCCN)C(C)C)C3)c2Cl)nn2c(C#N)cnc12 [Example 822, (S)-(3R,4R)-1-(2-chloro-5-cyano-3-((7-cyano-4-(ethylamino)imidazo[2,1-f][1,2,4]triazin-2-yl)amino)phenyl)-4-((methoxycarbonyl)amino)piperidin-3-yl 2-((S)-2,6-diaminohexanamido)-3-methylbutanoate dihydrochloride]
2 nM	CCNc1nc(Nc2cc(C#N)cc(N3CC[C@@H](NC(=O)OC)[C@H](OC(=O)[C@@H](NC(=O)[C@@H](N)CCCNC(=N)N)C(C)C)C3)c2Cl)nn2c(C#N)cnc12 [Example 823, (S)-(3R,4R)-1-(2-chloro-5-cyano-3-((7-cyano-4-(ethylamino)imidazo[2,1-f][1,2,4]triazin-2-yl)amino)phenyl)-4-((methoxycarbonyl)amino)piperidin-3-yl 2-((S)-2-amino-5-guanidinopentanamide)-3-methylbutanoate trihydrochloride]
0.32 nM	CCNc1nc(Nc2ccc3c(c2)c(C#N)cn3C2CCN([C@H]3COC[C@@H]3O)CC2)nn2c(C#N)cnc12 [Example 826, 2-((3-cyano-1-(1-((3S,4R)-4-hydroxytetrahydrofuran-3-yl)piperidin-4-yl)-1H-indol-5-yl)amino)-4-(ethylamino)imidazo[2,1-f][1,2,4]triazine-7-carbonitrile]
0.75 nM	CCNc1nc(Nc2ccc3c(c2)c(C#N)cn3C2CCN([C@H]3COC[C@@H]3O)CC2)nn2c(C#N)cnc12 [Example 827, 2-((3-cyano-1-(1-((3S,4R)-4-hydroxytetrahydrofuran-3-yl)piperidin-4-yl)-1H-indol-5-yl)amino)-4-(ethylamino)imidazo[2,1-f][1,2,4]triazine-7-carbonitrile]

Source: patent publication US9273057B2 (Bristol-Myers Squibb Company, priority 2012, dated 2016)
